From patent publication US9765115B2, “Inhibitors of metastasis, methods of generating such inhibitors and their therapeutic applications” (Board of Supervisors of Louisiana State University acting …, priority 2011, dated 2017)
Where a chain is given by its changes, count along the chain named.

Key:
[1] = test system: calcitonin receptor (CTR); test: cAMP accumulation (radioimmunoassay) in PC-3 CTRwt and PC-3 CTRΔESS cells; assay type: cell-based, human; conditions: 3 min
Experimental: PC-3CTRwt and PC-3CTRΔESS cells were treated with/without 50 nM CT for three min, washed and harvested in lysis buffer (50 mM Tris, pH 7.5, containing 5 mM EDTA, 50 mM NaF, 1 mM sodium pyrophosphate, 0.5 mM EGTA, 10 mM β-mercaptoethanol, leupeptin, 1 μg/ml; and aprotinin, 1 μg/ml). The lysates were analyzed for cAMP levels by radioimmunoassay (Perkin Elmer, Shelton, Conn.).
FIG. 1C depicts photomicrographs showing CTRwt and CTRΔESS (a mutant) localized to the plasma membrane (at 400×) in PC-3 cells. To examine the ability of CTRwt and CTRΔESS to activate its G protein-coupled effectors, the effect of 50 nM CT was examined on cAMP accumulation and PKA and PKC activity. […] FIG. 1D depicts the effect of 50 nM CT on cAMP accumulation in PC-3 CTRwt and PC-3 CTRΔESS cells stimulated with or without 50 nM CT for 3 min. The cells were lysed, and the lysates were analyzed for cAMP levels by radioimmunoassay (*p<0.01 (paired t-test)).
The effect of CT on cAMP was further tested in a dose-response study where the response to CT at multiple doses (between 0-100 nM) was examined. FIG. 1G depicts cAMP accumulation in PC-3 CTR and PC-3 CTRΔESS cells in response to CT at multiple doses (between 0-100 nM) stimulated for 3 min (*p<0.01 (One-way ANOVA and Newman-Keuls test)).

CTR-ZO-1 interaction [2] = biological target: T1, CTR-ZO-1 interaction (Homo sapiens, UniProt P30988, E471A/S472A/S473A); test: In situ proximity ligation assay (PLA); assay type: cell-based; conditions: PC-3CTRΔESS cells, with or without CT
T1 construct: PCR generated full length CTRwt and CTRΔESS cDNAs were cloned directionally into pcDNA3.1 mammalian expression vector; FLAG (N); expressed in transfected cells; host or cells: PC-31 / PC-3 cells stably expressing FLAG-CTRwt; ZO-1 is the cells' own
T1 sequence (P30988 with tags, fused parts or gaps): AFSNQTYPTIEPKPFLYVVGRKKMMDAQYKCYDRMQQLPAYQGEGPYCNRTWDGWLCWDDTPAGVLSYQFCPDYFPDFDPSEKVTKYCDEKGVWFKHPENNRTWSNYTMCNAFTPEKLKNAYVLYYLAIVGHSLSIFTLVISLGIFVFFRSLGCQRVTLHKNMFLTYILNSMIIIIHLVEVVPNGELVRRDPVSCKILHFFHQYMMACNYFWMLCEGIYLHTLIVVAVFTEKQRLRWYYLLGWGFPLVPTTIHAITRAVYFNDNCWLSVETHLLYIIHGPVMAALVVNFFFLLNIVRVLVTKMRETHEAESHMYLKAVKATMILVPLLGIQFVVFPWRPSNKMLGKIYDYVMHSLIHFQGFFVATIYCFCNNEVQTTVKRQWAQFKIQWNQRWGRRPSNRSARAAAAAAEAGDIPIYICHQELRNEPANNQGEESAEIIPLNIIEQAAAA
Experimental: (§1) Fixed PC cells or tissues were immunolabeled with primary antibodies (anti-rabbit ZO-1 serum and anti-goat CTR serum) for overnight at 4° C. The secondary antibodies with attached PLA probes were supplied in the Duolink™ kit (Olink Bioscience, Uppsala, Sweden). CTR-ZO-1 interaction was observed by confocal microscopy at 400×. A red fluorescent dot indicated the two proteins are within 35 nm distance. The number of dots per cell was determined by Blobfinder™ image analysis software (Allalou et al., 2009).
(§2) Next, CTR-ZO-1 interaction was examined in PC-3CTRwt cells. […] Each dot represents an interaction between activated CTR and ZO-1, detected by in situ PLA™ using the Duolink® kit. Nuclei were stained with DAPI. The graph presents quantitative data of CTR-ZO-1 interactions in three separate but identical experiments (mean±SEM; n=6, p<0.001, paired t-test). […] Next, this phenomenon was examined in LNCaP cells, which are androgen-responsive and endogenously express CTR but not CT (Karpova et al., 2006). […] Finally, non-metastatic and metastatic PC specimens were examined in a similar experiment.
(§3) Since CTR directly interacts with ZO-1 through PDZ domain, whether CT-induced endocytosis of ZO-1 is caused by CTR-mediated events prior to or subsequent to CTR-ZO-1 interaction was tested. To determine the time course of CTR-ZO-1 interaction, in situ PLA assay was used (FIG. 15D). […] Representative micrographs are shown of CTR-ZO-1 interactions in PC-3CTRwt cells at various time periods (0-300 seconds) after CT stimulus. Each highlighted dot represents an interaction between activated CTR and ZO-1, detected by in situ PLA™ using the Duolink® kit. Nuclei were stained with DAPI. The line graph presents the mean±SEM of dots at each time point (n=6). […] Considering that ZO-1 endocytosis was observed after 1 minute of CT stimulus, it is conceivable that CTR-mediated events subsequent to CTR-ZO-1 interaction may be associated with TJ protein endocytosis.

CTR-ZO-1 interaction [3] = test: In situ proximity ligation assay (PLA); assay type: cell-based; conditions: LNCaP cells, CT 50 nM, 30 seconds
Experimental: as §1, §2, §3

CTR-ZO-1 interaction [4] = biological target: T2, CTR-ZO-1 interaction (Homo sapiens, UniProt P30988); test: In situ proximity ligation assay (PLA); assay type: cell-based; conditions: PC-3CTRwt cells
T2 construct: PCR generated full length CTRwt and CTRΔESS cDNAs were cloned directionally into pcDNA3.1 mammalian expression vector; FLAG (N); expressed in transfected cells; host or cells: PC-31 / PC-3 cells stably expressing FLAG-CTRwt; ZO-1 is the cells' own
T2 sequence (P30988 25-474): T1 sequence (P30988 with tags, fused parts or gaps) with A447E, A448S, A449S
Experimental: as §1, §2, §3

## calcitonin [CT]
[1]; 50 nM CT, PC-3 CTRwt and PC-3CTRΔESS cells
  cAMP accumulation: stimulated cAMP production
[1]; CT 0-100 nM, CTRwt and CTRΔESS cells, all doses
  cAMP accumulation, dose-response: significantly increased
CTR-ZO-1 interaction [2]
  CTR-ZO-1 interactions (PLA dots): no CTR-ZO-1 interactions were observed
CTR-ZO-1 interaction [3]
  CTR-ZO-1 interactions (PLA dots): strong interaction
CTR-ZO-1 interaction [4]
  time of peak CTR-ZO-1 interaction after CT stimulus: 30 s
CTR-ZO-1 interaction [4]; 50 nM CT, 30 seconds
  CTR-ZO-1 interactions (PLA dots): eighty-fold increase
